Results as given in patent US11458205B2, “Genetically encoded intrinsically disordered stealth polymers for delivery and methods of using same” (Duke University, priority 2015, dated 2022).

Tested on: MDA-MB-231 human triple negative breast cancer cells
Experiment: In vitro cytotoxicity (MTS) of ZiPP-PTX conjugates
Format: cell-based
Details: MDA-MB-231, 72 hours of drug treatment, concentration in terms of the drug, read-out: IC50 (concentration of the drug that reduced cell viability by 50%)
Experimental: In vitro cytotoxicity of ZiPP-PTX conjugates. In vitro cytotoxicity was done on MDA-MB-231 human triple negative breast cancer cells. 3×10^3 cells were seeded per 100 μL of media in Falcon™ 96-well cell culture plates (BD; Franklin Lakes, N.J.). The cells were allowed to adhere for 16-18 hours before being treated with free PTX and ZiPP-PTX at concentrations that ranged from sub-nanomolar to high-micromolar range. After 72 hours of drug treatment, 20 μL of […] (MTS) reagent (CellTiter 96 AQueous™ Promega; Madison, Wis.) was added to each well and incubated for an additional 2 hours. A dose-response curve for free drug and ZiPP-drug conjugate was constructed by measuring the absorbance of each well at 490 nm with a Victor3 microplate reader (Perkin Elmer; Waltham, Mass.). The 50% inhibitory concentration, IC50, was determined by fitting data to the following equation (Andrew MacKay, J., et al. Nat. Mater. 2009, 8, 993-999):
[formula] where V is viability of cells, Ctreatment is drug concentration, and p is slope of the dose response curve. This IC50 value is used to evaluate the potency of the conjugates.
The in vitro cytotoxicity of Zipp-PTX was measured by looking at the cell viability over a range of concentrations as a function of time. […]

**Q.** For `CC(=O)O[C@H]1C(=O)[C@@]2(C)[C@H]([C@H](OC(=O)c3ccccc3)[C@]3(O)C[C@H](OC(=O)[C@H](O)[C@@H](NC(=O)c4ccccc4)c4ccccc4)C(C)=C1C3(C)C)[C@]1(OC(C)=O)CO[C@@H]1C[C@@H]2O` [free drug, Paclitaxel], which IC50 is on record?
**A.** ~2 nM
